What was measured:
[1] = molecular target: T1, PD-1/PD-L1 interaction (Homo sapiens, UniProt Q9NZQ7); experiment: PD-1/PD-L1 NFAT reporter co-culture assay; type: cell-based; conditions: Jurkat PD-1 NFAT-luciferase cells co-cultured with aAPC-PD-L1 CHO cells, 6 hrs at 37° C.; read-out: EC50 NFAT Luciferase
T1 construct: expressed in transfected cells; host or cells: CHO cells (aAPC-PD-L1) co-cultured with Jurkat cells overexpressing PD-1 and an NFAT-luciferase reporter
Method in brief: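 Jurkat cells overexpressing PD-1 with NFAT-driven luciferase were mixed with compound in RPMI 1640/2% FBS and seeded onto overnight-plated CHO aAPC-PD-L1 cells expressing surface anti-CD3 and PD-L1. Co-culture ran 6 h at 37 °C; luminescence read with ONE-Glo; EC50 from four-parameter fit.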

[2] = molecular target: T2, PD-L1 (Homo sapiens, UniProt Q9NZQ7); experiment: PD-L1/PD-L1 dimerization biochemical protein-protein interaction assay (ALPHA); type: binding; conditions: compound-induced PD-L1 dimerization, head prints '1 nM' (0.5 nM His-tagged PD-L1 and 0.5 nM FLAG-tagged PD-L1), read-out: AC50 PDL1 Dimer Alpha 1 nM
T2 construct: determine if they can specifically dimerize the extracellular domains of PD-L1
T2 sequence (Q9NZQ7 19-238 limits assumed): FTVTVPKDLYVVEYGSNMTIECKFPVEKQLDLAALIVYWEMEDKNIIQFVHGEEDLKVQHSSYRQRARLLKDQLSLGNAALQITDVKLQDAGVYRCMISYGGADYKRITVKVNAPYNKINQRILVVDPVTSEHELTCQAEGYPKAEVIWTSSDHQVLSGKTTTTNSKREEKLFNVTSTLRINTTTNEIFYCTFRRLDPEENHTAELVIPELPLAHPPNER
T2 sequence (Q9NZQ7 19-238 limits assumed): as above
Method in brief: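 ALPHA proximity assay of compound-induced dimerization of 0.5 nM His-tagged and 0.5 nM FLAG-tagged PD-L1 extracellular domains in Hepes pH 7.4 buffer, 2 h at 25 °C. Anti-His acceptor then anti-FLAG donor beads, 60 min each; AC50 from four-parameter fit.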

[3] = molecular target: PD-1/PD-L1 (Homo sapiens, UniProt Q9NZQ7); experiment: PD-1/PD-L1 biochemical protein-protein interaction assay (ALPHA); type: binding; conditions: 0.3 nM His tagged PD-L1, 2.5 nM biotinylated Fc-PD-1, 60 minutes at 25° C., read-out: IC50 PD-L1-PD-1 Alpha IC50-mono PD-L1-fcP-D1
Chain of PD-1/PD-L1 (Q9NZQ7 19-238 limits assumed): as above
Method in brief: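 ALPHA bead proximity assay of extracellular domains: 0.3 nM His-PD-L1 with 2.5 nM biotinylated Fc-PD-1 in 25 mM Hepes pH 7.4, 150 mM NaCl, 3.4 mM EDTA, 0.005% Tween 20, 0.01% BSA, 60 min at 25 °C. Anti-His acceptor and streptavidin donor beads added; IC50 from four-parameter fit of signal loss.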

T1 sequence (Q9NZQ7 19-290): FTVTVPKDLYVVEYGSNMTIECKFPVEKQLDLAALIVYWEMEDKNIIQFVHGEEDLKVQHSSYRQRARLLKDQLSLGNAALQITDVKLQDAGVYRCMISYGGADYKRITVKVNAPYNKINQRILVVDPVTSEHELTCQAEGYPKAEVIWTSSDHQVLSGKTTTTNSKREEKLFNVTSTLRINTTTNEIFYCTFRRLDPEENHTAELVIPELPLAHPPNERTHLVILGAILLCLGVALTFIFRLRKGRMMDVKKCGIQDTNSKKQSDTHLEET

EC50 [1] [nM] | AC50 [2] [nM] | IC50 [3] [nM] | Structure (SMILES)
19 | 14.1 | 0.064 | COc1nc(O[C@H]2CCc3c(-c4cccc(-c5cc(C)c(CNC[C@@H]6CCC(=O)N6)c(OC)n5)c4Cl)cccc32)c(Cl)cc1CN1CC[C@@H](C(=O)O)C1 [Example 490]
21 | 19.8 | 0.064 | COc1nc(O[C@H]2CCc3c(-c4cccc(-c5cc(C)c(CNC[C@@H]6CCC(=O)N6)c(OC)n5)c4Cl)cccc32)c(Cl)cc1CN1CC[C@H](C(=O)O)C1 [Example 491]
182 | 302 | 1.43 | Cc1c(COc2cc(OCc3cncc(C#N)c3)c(CNC[C@@H]3CCC(=O)N3)cc2Cl)cccc1-c1cccc(-c2ccc(CNC[C@@H]3CCC(=O)N3)cc2)c1C [Example 497]
111 | 84.7 | 0.115 | Cc1c(COc2cc(OCc3cncc(C#N)c3)c(CN[C@@](C)(CO)C(=O)O)cc2Cl)cccc1-c1cccc(-c2cccc([C@@H](C)N)c2)c1C [Example 498]
59 | 86.5 | 0.093 | Cc1c(COc2cc(OCc3cncc(C#N)c3)c(CN[C@@](C)(CO)C(=O)O)cc2Cl)cccc1-c1cccc(-c2cccc([C@H](C)N)c2)c1C [Example 499]
97 | 50.1 | 0.064 | Cc1c(COc2cc(OCc3cncc(C#N)c3)c(CN[C@@](C)(CO)C(=O)O)cc2Cl)cccc1-c1cccc(-c2ccc(C3=NCCN3)cn2)c1C [Example 500]
60 | 35.3 | 0.064 | COc1cc(-c2cccc(-c3cccc(COc4cc(OCc5cncc(C#N)c5)c(CN[C@@](C)(CO)C(=O)O)cc4Cl)c3C)c2C)ccc1C1=NCCN1 [Example 501]
100 | 85.2 | 0.081 | COc1cc(-c2cccc(-c3cccc(COc4cc(OCc5cncc(C#N)c5)c(CNC[C@@H](O)CC(=O)O)cc4Cl)c3C)c2C)ccc1C1=NCCN1 [Example 502]
81 | 42.1 | 0.064 | Cc1c(COc2cc(OCc3cncc(C#N)c3)c(CN[C@@](C)(CO)C(=O)O)cc2Cl)cccc1-c1cccc(-c2ccc(C3=NCCN3)cc2)c1C [Example 503]
68 | 47.8 | 0.064 | COc1nc(-c2cccc(-c3cccc(COc4cc(OCc5cncc(C#N)c5)c(CN[C@@](C)(CO)C(=O)O)cc4Cl)c3C)c2C)ccc1C1=NCCN1 [Example 504]
80 | 55 | 0.064 | COc1nc(-c2cccc(-c3cccc(COc4cc(OCc5cncc(C#N)c5)c(CNC[C@@H](O)CC(=O)O)cc4Cl)c3C)c2C)ccc1C1=NCCN1 [Example 505]
204 | 172 | 0.239 | COc1cc(-c2cccc(-c3cccc(COc4cc(OCc5cncc(C#N)c5)c(CN[C@@](C)(CO)C(=O)O)cc4Cl)c3C)c2C)ccc1CN [Example 506]
210 | 262 | 0.693 | COc1cc(-c2cccc(-c3cccc(COc4cc(OCc5cncc(C#N)c5)c(CNC[C@@H](O)CC(=O)O)cc4Cl)c3C)c2C)ccc1CN [Example 507]
156 | 78 | 0.084 | COc1cc(-c2cccc(-c3cccc(COc4cc(OCc5cncc(C#N)c5)c(CN[C@@](C)(CO)C(=O)O)cc4Cl)c3C)c2C)ccc1CNCC1CCC(=O)N1 (stereo partly drawn) [Example 508]
89 | 129 | 0.097 | COc1ccc(-c2cccc(-c3cccc(COc4cc(OCc5cncc(C#N)c5)c(CN[C@@](C)(CO)C(=O)O)cc4Cl)c3C)c2C)cc1CNCC1CCC(=O)N1 (stereo partly drawn) [Example 509]
147 | 232 | 0.064 | Cc1c(COc2cc(OCc3cncc(C#N)c3)c(CN3C[C@@H](O)C[C@H]3C(=O)O)cc2Cl)cccc1-c1cccc(-c2ccc(OCCNCCO)cc2)c1C [Example 510]

EC50 [1] [nM] | AC50 [2] [nM] | IC50 [3] [nM] | Structure (SMILES)
197 | 36.9 | 0.082 | Cc1c(COc2cc(OCc3cncc(C#N)c3)c(CN[C@](C)(CO)C(=O)O)cc2Cl)cccc1-c1cccc(-c2ccc(OCCNCCO)cc2)c1C [Example 511]
131 | 255 | 0.526 | COc1cc(-c2cccc(-c3cccc(-c4cc(F)c(CNC[C@@H]5CCC(=O)N5)c(OC)c4)c3Cl)c2Cl)cc(F)c1CNC[C@@H]1CCC(=O)N1 [Example 512]
47 | 89.3 | 0.301 | COc1cc(-c2cccc(-c3cccc(-c4ccc(CNC[C@@H]5CCC(=O)N5)c(OC)c4)c3Cl)c2Cl)ccc1CNC[C@@H]1CCC(=O)N1 [Example 513]
156 | 359 | 0.735 | Cc1c(COc2cc(OCc3cncc(C#N)c3)c(CNC[C@@H](O)CC(=O)O)cc2Cl)cccc1-c1cccc(-c2ccc(CNC[C@@H](O)CC(=O)O)c(-c3ccccc3)c2)c1C [Example 514]
92 | 104 | 0.065 | Cc1c(COc2cc(OCc3cncc(C#N)c3)c(CN[C@@](C)(CO)C(=O)O)cc2Cl)cccc1-c1cccc(-c2ccc(OCCN3CCC4(CCCNC4=O)CC3)cc2)c1C [Example 516]
154 | 91.7 | 0.064 | Cc1c(COc2cc(OCc3cncc(C#N)c3)c(CN[C@@](C)(CO)C(=O)O)cc2Cl)cccc1-c1cccc(-c2ccc(OCCNC[C@@H]3CCC(=O)N3)cc2)c1C [Example 517]
159 | 96.1 | 0.064 | Cc1c(COc2cc(OCc3cncc(C#N)c3)c(CN[C@@](C)(CO)C(=O)O)cc2Cl)cccc1-c1cccc(-c2ccc(OCCNC[C@H]3CCC(=O)N3)cc2)c1C [Example 518]
125 | 103 | 0.064 | Cc1c(COc2cc(OCc3cncc(C#N)c3)c(CNC[C@@H](O)CC(=O)O)cc2Cl)cccc1-c1cccc(-c2ccc(OCCN3CC4(CCC(=O)N4)C3)cc2)c1C [Example 519]
97 | 57.5 | 0.064 | Cc1c(COc2cc(OCc3cncc(C#N)c3)c(CN[C@@](C)(CO)C(=O)O)cc2Cl)cccc1-c1cccc(-c2ccc(OCCN3CC4(CCC(=O)N4)C3)cc2)c1C [Example 520]
106 | 125 | 0.064 | Cc1c(COc2cc(OCc3cncc(C#N)c3)c(CN[C@@](C)(CO)C(=O)O)cc2Cl)cccc1-c1cccc(-c2ccc(OCCN3CCC4(CC3)CNC(=O)C4)cc2)c1C [Example 521]
195 | 74.3 | 0.064 | Cc1c(COc2cc(OCc3cncc(C(=O)O)c3)c(CN[C@@](C)(CO)C(=O)O)cc2Cl)cccc1-c1cccc(-c2ccc(OCCN3CC[C@@H](O)C3)cc2)c1C [Example 522]
129 | ≥ 10000 | 0.295 | COc1cc(OCc2cccc(-c3cccc(COc4cc(OC)c(CNC[C@@H](O)CC(=O)O)cc4C#N)c3C)c2C)c(C#N)cc1CNC[C@@H](O)CC(=O)O [Example 523]
39 | 67.7 | 0.064 | COc1nc(O[C@H]2CCc3c(-c4cccc(-c5cnc6c(CN7CC8(CNC(=O)C8)C7)cn(C)c6n5)c4Cl)cccc32)c(Cl)cc1CN1CCC[C@@H](C(=O)O)C1 [Example 524]
27 | 34.8 | 0.064 | COc1nc(O[C@H]2CCc3c(-c4cccc(-c5cnc6c(CN7CC8(CNC(=O)C8)C7)cn(C)c6n5)c4Cl)cccc32)c(Cl)cc1CN1CC[C@@H](C(=O)O)C1 [Example 525]
110 | 73.6 | 0.064 | COc1nc(O[C@H]2CCc3c(-c4cccc(-c5cnc6c(CNC[C@@H]7CCC(=O)N7)cn(C)c6n5)c4Cl)cccc32)c(Cl)cc1CN1CCC[C@@H](C(=O)O)C1 [Example 526]

— US12590062B2, “PD-1/PD-L1 inhibitors” (Gilead Sciences, Inc., priority 2017, dated 2026)
